For one assay, the target named is T1, α1A adrenoceptor (Rattus norvegicus, UniProt P43140).
T1 construct: a 43,000×g precipitation fraction was prepared from a rat submaxillary gland, and this was used as a crude membrane preparation; from tissue; host or cells: submaxillary gland of Sprague-Dawley male rat, crude membrane preparation
T1 sequence (P43140 1-466): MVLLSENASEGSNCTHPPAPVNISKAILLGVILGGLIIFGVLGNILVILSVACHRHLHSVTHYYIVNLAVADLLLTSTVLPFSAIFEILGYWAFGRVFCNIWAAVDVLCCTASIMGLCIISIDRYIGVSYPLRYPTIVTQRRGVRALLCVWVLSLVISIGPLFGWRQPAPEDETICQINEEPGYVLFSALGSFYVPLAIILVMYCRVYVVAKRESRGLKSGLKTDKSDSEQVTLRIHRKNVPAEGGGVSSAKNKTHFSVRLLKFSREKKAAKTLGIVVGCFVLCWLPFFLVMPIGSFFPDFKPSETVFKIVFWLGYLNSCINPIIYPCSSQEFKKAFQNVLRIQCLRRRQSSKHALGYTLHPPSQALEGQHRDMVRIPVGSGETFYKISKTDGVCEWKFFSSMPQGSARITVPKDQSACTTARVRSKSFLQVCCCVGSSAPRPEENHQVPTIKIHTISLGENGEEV
Nature of the assay: Binding to α1A adrenoceptor, [3H] prazosin, rat submaxillary gland crude membrane preparation. The conditions noted are these: 0.5 nM [3H] prazosin, 25° C., 30 minutes. On the procedure:
All experiments were performed at temperatures between 0° C. and 4° C. As an α1A adrenoceptor preparation, a 43,000×g precipitation fraction was prepared from a rat submaxillary gland, and this was used as a crude membrane preparation in the experiment.
A Sprague-Dawley male rat was exsanguinated under ether anesthesia, and the submaxillary gland was isolated, was weighed and was cut to pieces with scissors. The cut gland was put into a Potter-Elvehjem type Teflon homogenizer, and was homogenized with 5 times by volume (5 mL per 1 g of the wet weight of the submaxillary gland) of a 50 mM Tris-HCl buffer (pH=7.4) containing 5 mM EDTA, 0.2 mM DTT, and 0.1 mM PMSF. The resulting homogenate was allowed to pass through a nylon mesh and was centrifuged at 800×g for 10 minutes, and the resulting supernatant was centrifuged at 43,000×g for 15 minutes. The precipitate was suspended in a 50 mM Tris-HCl buffer (pH=7.4) (Buffer A) containing 10 mM MgCl2, 0.2 mM DTT, and 0.1 mM PMSF and was then centrifuged at 43,000×g for 15 minutes. The resulting precipitate was suspended in Buffer A to a protein concentration of about 10 mg/mL, and the suspension was used as the crude membrane preparation.
(§1) Each of the crude membrane preparations was dispensed and was stored at −80° C. and was subjected to the experiment on use. The protein concentration was determined by Lowry method using bovine serum albumin as a standard.
(§2) Buffer A (400 μL) containing 0.5 nM [3H] prazosin and 200 μg crude membrane preparation was used as a standard reaction solution. The receptor preparation and [3H] prazosin were incubated at 25° C. for 30 minutes, and 2 mL of cold Buffer A was added to terminate the reaction. […] The same experimental procedure was performed in the presence of 10 μM phentolamine to thereby determine a nonspecific binding activity. A specific binding activity was calculated by subtracting the nonspecific binding activity from the total binding activity.
(§3) A solution ofa test drug was prepared by dissolving the test drug to 10 mM in distilled water, ethanol, or DMSO, and serially diluting the solution with distilled water.
(§4) Kd values and Bmax values were determined using Scatchard plots. Dissociation constant Ki (riM) of each compound was determined according to the following equation.
(§5) Ki=IC50/[1+(radioactive ligand concentration/Kd)]

For the next assay, the target named is T2, α1B adrenoceptor (Rattus norvegicus, UniProt P15823).
T2 construct: a 100,000×g precipitation fraction was prepared from a rat liver and this was used as a crude membrane preparation; from tissue; host or cells: liver of Sprague-Dawley male rat, crude membrane preparation
T2 sequence (P15823 1-515): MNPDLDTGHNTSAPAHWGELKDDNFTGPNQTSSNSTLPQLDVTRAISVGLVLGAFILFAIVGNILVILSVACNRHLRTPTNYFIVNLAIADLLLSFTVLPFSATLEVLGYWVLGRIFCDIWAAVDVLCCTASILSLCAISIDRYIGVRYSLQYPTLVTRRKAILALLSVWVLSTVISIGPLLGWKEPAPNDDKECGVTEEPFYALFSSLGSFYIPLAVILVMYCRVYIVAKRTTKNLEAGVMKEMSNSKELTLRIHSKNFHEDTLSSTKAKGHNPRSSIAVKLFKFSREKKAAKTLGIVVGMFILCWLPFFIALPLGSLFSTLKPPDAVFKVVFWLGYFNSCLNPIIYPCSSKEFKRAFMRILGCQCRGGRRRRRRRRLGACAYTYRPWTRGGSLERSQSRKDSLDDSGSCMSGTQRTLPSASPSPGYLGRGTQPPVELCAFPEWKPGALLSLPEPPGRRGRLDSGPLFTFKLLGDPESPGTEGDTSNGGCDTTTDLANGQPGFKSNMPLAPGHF
The experiment in a line: Binding to α1B adrenoceptor, [3H] prazosin, rat liver crude membrane preparation. Particulars: 0.5 nM [3H] prazosin, 25° C., 30 minutes. As to the method:
As an α1B adrenoceptor preparation, a 100,000×g precipitation fraction was prepared from a rat liver and this was used as a crude membrane preparation in the experiment.
A Sprague-Dawley male rat was exsanguinated under ether anesthesia, and the liver was isolated, was weighed and was cut into pieces with scissors. The cut liver was put into a Potter-Elvehjem type Teflon homogenizer, and was homogenized with 9 times by volume (9 mL per 1 g of the wet weight of the liver) of a 50 mM Tris-HCl buffer (pH 7.4) containing 0.25 M sucrose, 10 mM MgCl2, 1 mM EDTA, 0.2 mM DTT, and 0.1 mM PMSF. The homogenate was centrifuged at 800×g for 10 minutes, and the resulting supernatant was centrifuged at 100,000×g for 10 minutes, and the supernatant was then further centrifuged at 100,000×g for 60 minutes. The precipitate obtained by centrifugation was suspended in a 50 mM Tris-HCl buffer (pH=7.4) (Buffer A) containing 10 mM MgCl2, 0.2 mM DTT, and 0.1 mM PMSF to a protein concentration of about 10 mg/mL, and the suspension was used as the crude membrane preparation.
as §1, §2, §3, §4, §5

The subject of assay [1] is vasopressor response induced by phenylephrine (an α1 adrenoceptor agonist). The experiment in a line: Inhibitory activity against vasopressor response induced by phenylephrine in rats under anesthesia. Particulars: continuous i.v. infusion, 15 minutes after administration, phenylephrine 3 μg/kg, mean ± standard error. Type of assay: in vivo, rat. On the procedure:
The inhibitory activity of the α1B adrenoceptor antagonist according to Example 23 against vasopressor response induced by phenylephrine (an α1 adrenoceptor agonist) in rats under anesthesia was studied. […] The compound was dissolved in physiological saline, and was infused into the femoral vein at a rate of 20 μl/kg/min. Phenylephrine was dissolved in physiological saline and was bolus injected at a dose of 0.2 ml/kg (3 μg/kg). The inhibition rate was calculated according to the following equation.
Inhibition rate (7)=[1—(pressure increase induced by phenylephrine 15 minutes after administration of the example compound)/(pressure increase induced by phenylephrine before administration of the example compound)]×100

The structures appear in SMILES notation. Where a name gives a salt, the structure may show the parent alone.

A word on the Ki: it is a measure of affinity in units of concentration, obtained from inhibition or displacement. Turning to `c1ccc2c(c1)CN(CCCN1CCC(c3c[nH]c4ccccc34)CC1)C2` [Example 14, 3-(1-(3-Isoindolin-2-ylpropyl)-4-piperidyl)indole Hydrochloride], the inhibition constant (Ki) on α1A adrenoceptor was 50 nM; on α1B adrenoceptor, 3.6 nM.
The matching figures for `c1ccc2c(c1)CN(CCCCN1CCC(c3c[nH]c4ccccc34)CC1)C2` [Example 15, 3-(1-(4-Isoindolin-2-ylbutyl)-4-piperidyl)indole Hydrochloride]: 30 nM and 1.4 nM.
With `c1ccc2c(c1)CN(CCCCCN1CCC(c3c[nH]c4ccccc34)CC1)C2` [Example 16, 3-(1-(5-Isoindolin-2-ylpentyl)-4-piperidyl)indole], the Ki on α1A adrenoceptor worked out at 82 nM; at α1B adrenoceptor it was 1.6 nM.
On to `Fc1ccc2c(C3CCN(CCCN4CCCCC4)CC3)c[nH]c2c1` [Example 21, 6-Fluoro-3-(1i-(3-Piperidylpropyl)-4-piperidyl)indole Hydrochloride], for which the inhibitory constant (Ki) stood at 21 nM at α1A adrenoceptor and 0.63 nM at α1B adrenoceptor.
For `Fc1ccc2c(C3CCN(CCCN4Cc5ccccc5C4)CC3)c[nH]c2c1` [Example 23, 6-Fluoro-3-(1-(3-Isoindolin-2-ylpropyl)-4-piperidyl)indole Hydrochloride], the inhibition constant (Ki) came out at 18 nM on α1A adrenoceptor and 0.79 nM on α1B adrenoceptor. Also, the Inhibition rate in assay [1] (dose 0.1 mg/kg/min) is recorded as 24 ± 5%; in assay [1] (dose 0.3 mg/kg/min), 47 ± 5%; in assay [1] (dose 1 mg/kg/min), 72 ± 5%; in assay [1] (dose 3 mg/kg/min), 86 ± 2%.
Turning to `c1ccc(C2CCN(CCCN3CCC(c4ccccc4)CC3)CC2)cc1` [Reference Example 21, 4-Phenyl-1-(3-(4-phenylpiperidyl)propyl)piperidine Hydrochloride, reference compound], the figures for the Ki at α1A adrenoceptor and on α1B adrenoceptor were 870 nM and 860 nM, respectively.
